Laboratory results reported in patent publication US6838416B2, “Herbicidal 5-benzyloxymethyl-1,2-isoxazoline derivatives” (Korea Research Institute of Chemical Technology, priority 2000, dated 2005).

Legend:
[1] = test system: SCPJU (seed); assay: Assay for herbicidal activity, paddy pots: SCPJU; assay type: in vivo, Scirpus juncoides ROXB; settings: three weeks after application, 0 untreated control, 100 complete kill
Source text: (§1) To evaluate herbicidal activity against the paddy weeds in the paddy rice (ORYSA: Oryza sativa L.), the herbicidal activity of the compounds of the invention was compared to that of the compound No.109 (compound A) disclosed in U.S. Pat. […] The paddy weeds tested were ECHOR (Echinochloa crus-galli var. oryzicola), SCPJU (Scirpus juncoides ROXB), MOOVA (Monochoria vaginalis […] (Cyperus serotinus ROTTB), and SAGPY (Sagittaria pygmaea MTQ). The vessels employed were plastic pots having an area of 140 cm^2 and filled with a sandy loam soil containing 1.2% organic matter (pH 6).

[2] = test system: CYPSE (tuber); assay: Assay for herbicidal activity, paddy pots: CYPSE; assay type: in vivo, Cyperus serotinus ROTTB; settings: three weeks after application, 0 untreated control, 100 complete kill
Source text: as §1

[3] = test system: MOOVA (seed); assay: Assay for herbicidal activity, paddy pots: MOOVA; assay type: in vivo, Monochoria vaginalis PRESL; settings: three weeks after application, 0 untreated control, 100 complete kill
Source text: as §1

[4] = test system: SAGPY (tuber); assay: Assay for herbicidal activity, paddy pots: SAGPY; assay type: in vivo, Sagittaria pygmaea MTQ; settings: three weeks after application, 0 untreated control, 100 complete kill
Source text: as §1

[5] = test system: ECHOR (seed); assay: Assay for herbicidal activity, paddy pots: ECHOR; assay type: in vivo, Echinochloa crus-galli var. oryzicola; settings: for ECHOR (seed) herbicidal activity, visual percentage grading: three weeks after application, 0 untreated control, 100 complete kill
Source text: as §1

Structure (SMILES): Cc1cc(C)c(C2=NOC(C)(COCc3c(F)cccc3F)C2)s1 (stereo not shown) [EXAMPLE 15, 5-(2,6-difluorobenzyl)oxymethyl-5-methyl-3-(2,4-dimethylthiophene-5-yl)-1,2-isoxazoline]
- SCPJU (seed) herbicidal activity, visual percentage grading ([1]; 0.016 kg/ha): 20%
- SCPJU (seed) herbicidal activity, visual percentage grading ([1]; 0.063 kg/ha): 50%
- SCPJU (seed) herbicidal activity, visual percentage grading ([1]; 0.250 kg/ha): 100%
- SCPJU (seed) herbicidal activity, visual percentage grading ([1]; 1.000 kg/ha): 100%
- SCPJU (seed) herbicidal activity, visual percentage grading ([1]; 4.000 kg/ha): 100%
- CYPSE (tuber) herbicidal activity, visual percentage grading ([2]; 0.016 kg/ha): 0%
- CYPSE (tuber) herbicidal activity, visual percentage grading ([2]; 0.063 kg/ha): 0%
- CYPSE (tuber) herbicidal activity, visual percentage grading ([2]; 0.250 kg/ha): 70%
- CYPSE (tuber) herbicidal activity, visual percentage grading ([2]; 1.000 kg/ha): 100%
- CYPSE (tuber) herbicidal activity, visual percentage grading ([2]; 4.000 kg/ha): 100%
- MOOVA (seed) herbicidal activity, visual percentage grading ([3]; 0.016 kg/ha): 90%
- MOOVA (seed) herbicidal activity, visual percentage grading ([3]; 0.063 kg/ha): 100%
- MOOVA (seed) herbicidal activity, visual percentage grading ([3]; 0.250 kg/ha): 100%
- MOOVA (seed) herbicidal activity, visual percentage grading ([3]; 1.000 kg/ha): 100%
- MOOVA (seed) herbicidal activity, visual percentage grading ([3]; 4.000 kg/ha): 100%
- SAGPY (tuber) herbicidal activity, visual percentage grading ([4]; 0.016 kg/ha): 0%
- SAGPY (tuber) herbicidal activity, visual percentage grading ([4]; 0.063 kg/ha): 0%
- SAGPY (tuber) herbicidal activity, visual percentage grading ([4]; 0.250 kg/ha): 20%
- SAGPY (tuber) herbicidal activity, visual percentage grading ([4]; 1.000 kg/ha): 40%
- SAGPY (tuber) herbicidal activity, visual percentage grading ([4]; 4.000 kg/ha): 70%
- ECHOR (seed) herbicidal activity, visual percentage grading ([5]; 0.016 kg/ha): 40%
- ECHOR (seed) herbicidal activity, visual percentage grading ([5]; 0.063 kg/ha): 100%
- ECHOR (seed) herbicidal activity, visual percentage grading ([5]; 0.250 kg/ha): 100%
- ECHOR (seed) herbicidal activity, visual percentage grading ([5]; 1.000 kg/ha): 100%
- ECHOR (seed) herbicidal activity, visual percentage grading ([5]; 4.000 kg/ha): 100%

Structure (SMILES): CC1(COCc2c(F)cccc2F)CC(c2sccc2Br)=NO1 (stereo not shown) [EXAMPLE 19, 5-(2,6-difluorobenzyl)oxymethyl-5-methyl-3-(4-bromothiophene-5-yl)-1,2-isoxazoline]
- SCPJU (seed) herbicidal activity, visual percentage grading ([1]; 0.016 kg/ha): 0%
- SCPJU (seed) herbicidal activity, visual percentage grading ([1]; 0.063 kg/ha): 100%
- SCPJU (seed) herbicidal activity, visual percentage grading ([1]; 0.250 kg/ha): 100%
- SCPJU (seed) herbicidal activity, visual percentage grading ([1]; 1.000 kg/ha): 100%
- SCPJU (seed) herbicidal activity, visual percentage grading ([1]; 4.000 kg/ha): 100%
- CYPSE (tuber) herbicidal activity, visual percentage grading ([2]; 0.016 kg/ha): 30%
- CYPSE (tuber) herbicidal activity, visual percentage grading ([2]; 0.063 kg/ha): 90%
- CYPSE (tuber) herbicidal activity, visual percentage grading ([2]; 0.250 kg/ha): 90%
- CYPSE (tuber) herbicidal activity, visual percentage grading ([2]; 1.000 kg/ha): 100%
- CYPSE (tuber) herbicidal activity, visual percentage grading ([2]; 4.000 kg/ha): 100%
- MOOVA (seed) herbicidal activity, visual percentage grading ([3]; 0.016 kg/ha): 20%
- MOOVA (seed) herbicidal activity, visual percentage grading ([3]; 0.063 kg/ha): 95%
- MOOVA (seed) herbicidal activity, visual percentage grading ([3]; 0.250 kg/ha): 100%
- MOOVA (seed) herbicidal activity, visual percentage grading ([3]; 1.000 kg/ha): 100%
- MOOVA (seed) herbicidal activity, visual percentage grading ([3]; 4.000 kg/ha): 100%
- SAGPY (tuber) herbicidal activity, visual percentage grading ([4]; 0.016 kg/ha): 0%
- SAGPY (tuber) herbicidal activity, visual percentage grading ([4]; 0.063 kg/ha): 0%
- SAGPY (tuber) herbicidal activity, visual percentage grading ([4]; 0.250 kg/ha): 0%
- SAGPY (tuber) herbicidal activity, visual percentage grading ([4]; 1.000 kg/ha): 20%
- SAGPY (tuber) herbicidal activity, visual percentage grading ([4]; 4.000 kg/ha): 30%
- ECHOR (seed) herbicidal activity, visual percentage grading ([5]; 0.016 kg/ha): 100%
- ECHOR (seed) herbicidal activity, visual percentage grading ([5]; 0.063 kg/ha): 100%
- ECHOR (seed) herbicidal activity, visual percentage grading ([5]; 0.250 kg/ha): 100%
- ECHOR (seed) herbicidal activity, visual percentage grading ([5]; 1.000 kg/ha): 100%
- ECHOR (seed) herbicidal activity, visual percentage grading ([5]; 4.000 kg/ha): 100%
- herbicidal activity on ECHOR, in words ([5]; low dose of 0.016 Kg/ha): completely controls the growth of ECHOR

Structure (SMILES): COc1ccsc1C1=NOC(C)(COCc2c(F)cccc2F)C1 (stereo not shown) [EXAMPLE 21, 5-(2,6-difluorobenzyl)oxymethyl-5-methyl-3-(4-methoxythiophene-5-yl)-1,2-isoxazoline]
- SCPJU (seed) herbicidal activity, visual percentage grading ([1]; 0.016 kg/ha): 0%
- SCPJU (seed) herbicidal activity, visual percentage grading ([1]; 0.063 kg/ha): 100%
- SCPJU (seed) herbicidal activity, visual percentage grading ([1]; 0.250 kg/ha): 100%
- SCPJU (seed) herbicidal activity, visual percentage grading ([1]; 1.000 kg/ha): 100%
- SCPJU (seed) herbicidal activity, visual percentage grading ([1]; 4.000 kg/ha): 100%
- CYPSE (tuber) herbicidal activity, visual percentage grading ([2]; 0.016 kg/ha): 0%
- CYPSE (tuber) herbicidal activity, visual percentage grading ([2]; 0.063 kg/ha): 40%
- CYPSE (tuber) herbicidal activity, visual percentage grading ([2]; 0.250 kg/ha): 60%
- CYPSE (tuber) herbicidal activity, visual percentage grading ([2]; 1.000 kg/ha): 80%
- CYPSE (tuber) herbicidal activity, visual percentage grading ([2]; 4.000 kg/ha): 100%
- MOOVA (seed) herbicidal activity, visual percentage grading ([3]; 0.016 kg/ha): 0%
- MOOVA (seed) herbicidal activity, visual percentage grading ([3]; 0.063 kg/ha): 100%
- MOOVA (seed) herbicidal activity, visual percentage grading ([3]; 0.250 kg/ha): 100%
- MOOVA (seed) herbicidal activity, visual percentage grading ([3]; 1.000 kg/ha): 100%
- MOOVA (seed) herbicidal activity, visual percentage grading ([3]; 4.000 kg/ha): 100%
- SAGPY (tuber) herbicidal activity, visual percentage grading ([4]; 0.016 kg/ha): 0%
- SAGPY (tuber) herbicidal activity, visual percentage grading ([4]; 0.063 kg/ha): 0%
- SAGPY (tuber) herbicidal activity, visual percentage grading ([4]; 0.250 kg/ha): 0%
- SAGPY (tuber) herbicidal activity, visual percentage grading ([4]; 1.000 kg/ha): 0%
- SAGPY (tuber) herbicidal activity, visual percentage grading ([4]; 4.000 kg/ha): 0%
- ECHOR (seed) herbicidal activity, visual percentage grading ([5]; 0.016 kg/ha): 0%
- ECHOR (seed) herbicidal activity, visual percentage grading ([5]; 0.063 kg/ha): 100%
- ECHOR (seed) herbicidal activity, visual percentage grading ([5]; 0.250 kg/ha): 100%
- ECHOR (seed) herbicidal activity, visual percentage grading ([5]; 1.000 kg/ha): 100%
- ECHOR (seed) herbicidal activity, visual percentage grading ([5]; 4.000 kg/ha): 100%
